From ChEMBL document CHEMBL5331066, “Structure-guided design of novel HEPT analogs with enhanced potency and safety: From Isopropyl-HEPTs to Cyclopropyl-HEPTs” (Eur J Med Chem, 2023)

Key:
[1] = test system: Human immunodeficiency virus 1; experiment: Antiviral activity against HIV1 harboring L100I mutant infected in human MT4 cells assessed as protection against virus-induced cytopathicity; format: functional, organism-based; details: Human immunodeficiency virus 1, MT4
[2] = test system: Human immunodeficiency virus 1; experiment: Antiviral activity against wild type HIV1 IIIB infected in human MT4 cells assessed as protection against virus-induced cytopathicity; format: functional, organism-based; details: Human immunodeficiency virus 1, IIIB
[3] = Cytotoxicity against human MT4 cells assessed as reduction in cell viability; format: toxicity, cell-based
[4] = Selectivity index, ratio of CC50 for cytotoxicity against human MT4 cells to EC50 for antiviral activity against wild type HIV1 IIIB infected in human MT4 cells; format: toxicity, cell-based; details: read-out: Ratio CC50/EC50
[5] = test system: Human immunodeficiency virus 1; experiment: Antiviral activity against HIV1 harboring K103 N mutant infected in human MT4 cells assessed as protection against virus-induced cytopathicity; format: functional, organism-based; details: Human immunodeficiency virus 1, MT4
[6] = test system: Human immunodeficiency virus 1; experiment: Antiviral activity against HIV1 harboring Y181C mutant infected in human MT4 cells assessed as protection against virus-induced cytopathicity; format: functional, organism-based; details: Human immunodeficiency virus 1, MT4
[7] = test system: Human immunodeficiency virus 1; experiment: Antiviral activity against HIV1 harboring Y188L mutant infected in human MT4 cells assessed as protection against virus-induced cytopathicity; format: functional, organism-based; details: Human immunodeficiency virus 1, MT4
[8] = test system: Human immunodeficiency virus 1; experiment: Antiviral activity against HIV1 harboring E138K mutant infected in human MT4 cells assessed as protection against virus-induced cytopathicity; format: functional, organism-based; details: Human immunodeficiency virus 1, MT4
[9] = target: Human immunodeficiency virus type 1 reverse transcriptase (Human immunodeficiency virus 1, UniProt Q72547); experiment: Inhibition of wild type HIV-1 reverse transcriptase assessed as inhibition of biotin deoxyuridine triphosphate incorporation into […]
[10] = target: T1, Cytochrome P450 1A2 (Homo sapiens, UniProt P05177); experiment: Inhibition of CYP1A2 (unknown origin); format: ADME
T1 sequence (P05177 whole entry): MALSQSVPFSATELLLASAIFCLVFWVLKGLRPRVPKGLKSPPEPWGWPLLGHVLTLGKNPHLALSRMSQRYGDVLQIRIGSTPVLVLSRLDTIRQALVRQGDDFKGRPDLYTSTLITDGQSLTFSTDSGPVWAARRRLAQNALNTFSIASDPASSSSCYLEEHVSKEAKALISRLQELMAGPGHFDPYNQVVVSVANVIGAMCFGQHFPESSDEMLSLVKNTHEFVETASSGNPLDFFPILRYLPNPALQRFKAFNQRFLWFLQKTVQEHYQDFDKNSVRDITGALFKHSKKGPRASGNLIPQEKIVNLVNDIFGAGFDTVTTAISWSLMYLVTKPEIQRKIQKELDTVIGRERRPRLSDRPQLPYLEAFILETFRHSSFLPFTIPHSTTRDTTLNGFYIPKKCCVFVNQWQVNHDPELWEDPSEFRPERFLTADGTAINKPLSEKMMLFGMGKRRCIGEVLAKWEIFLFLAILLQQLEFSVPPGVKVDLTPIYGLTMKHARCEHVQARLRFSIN

[11] = target: Cytochrome P450 2C9 (Homo sapiens, UniProt P11712); experiment: Inhibition of CYP2C9 (unknown origin); format: ADME
Chain of Cytochrome P450 2C9 (P11712 whole entry): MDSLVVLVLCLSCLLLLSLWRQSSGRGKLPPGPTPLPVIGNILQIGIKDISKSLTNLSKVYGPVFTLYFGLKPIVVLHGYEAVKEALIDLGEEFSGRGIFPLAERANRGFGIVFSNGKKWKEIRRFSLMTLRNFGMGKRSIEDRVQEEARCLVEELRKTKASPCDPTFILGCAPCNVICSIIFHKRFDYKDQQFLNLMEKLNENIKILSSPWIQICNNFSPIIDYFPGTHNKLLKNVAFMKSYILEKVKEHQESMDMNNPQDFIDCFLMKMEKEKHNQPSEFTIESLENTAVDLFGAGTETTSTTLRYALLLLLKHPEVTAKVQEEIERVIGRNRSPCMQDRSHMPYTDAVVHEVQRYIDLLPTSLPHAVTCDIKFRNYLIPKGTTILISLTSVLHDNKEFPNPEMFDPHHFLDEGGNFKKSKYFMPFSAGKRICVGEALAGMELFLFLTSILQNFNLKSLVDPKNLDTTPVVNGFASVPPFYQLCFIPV

[12] = target: Cytochrome P450 2C19 (Homo sapiens, UniProt P33261); experiment: Inhibition of CYP2C19 (unknown origin); format: ADME
Chain of Cytochrome P450 2C19 (P33261 whole entry): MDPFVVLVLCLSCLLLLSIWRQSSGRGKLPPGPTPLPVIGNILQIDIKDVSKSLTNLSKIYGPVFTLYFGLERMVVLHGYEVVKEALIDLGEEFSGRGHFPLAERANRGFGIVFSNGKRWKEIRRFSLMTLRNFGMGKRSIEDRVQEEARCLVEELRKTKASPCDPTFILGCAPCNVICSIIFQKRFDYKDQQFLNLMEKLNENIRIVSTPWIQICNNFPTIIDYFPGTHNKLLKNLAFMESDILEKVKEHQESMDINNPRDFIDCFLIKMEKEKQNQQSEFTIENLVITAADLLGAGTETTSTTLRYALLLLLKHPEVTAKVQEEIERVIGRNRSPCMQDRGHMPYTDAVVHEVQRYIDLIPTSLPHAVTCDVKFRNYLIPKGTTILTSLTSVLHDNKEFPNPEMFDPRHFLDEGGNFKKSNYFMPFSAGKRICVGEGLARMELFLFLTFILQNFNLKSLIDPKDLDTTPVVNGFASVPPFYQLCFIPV

[13] = target: Cytochrome P450 2D6 (Homo sapiens, UniProt P10635); experiment: Inhibition of CYP2D6 (unknown origin); format: ADME
Chain of Cytochrome P450 2D6 (P10635 whole entry): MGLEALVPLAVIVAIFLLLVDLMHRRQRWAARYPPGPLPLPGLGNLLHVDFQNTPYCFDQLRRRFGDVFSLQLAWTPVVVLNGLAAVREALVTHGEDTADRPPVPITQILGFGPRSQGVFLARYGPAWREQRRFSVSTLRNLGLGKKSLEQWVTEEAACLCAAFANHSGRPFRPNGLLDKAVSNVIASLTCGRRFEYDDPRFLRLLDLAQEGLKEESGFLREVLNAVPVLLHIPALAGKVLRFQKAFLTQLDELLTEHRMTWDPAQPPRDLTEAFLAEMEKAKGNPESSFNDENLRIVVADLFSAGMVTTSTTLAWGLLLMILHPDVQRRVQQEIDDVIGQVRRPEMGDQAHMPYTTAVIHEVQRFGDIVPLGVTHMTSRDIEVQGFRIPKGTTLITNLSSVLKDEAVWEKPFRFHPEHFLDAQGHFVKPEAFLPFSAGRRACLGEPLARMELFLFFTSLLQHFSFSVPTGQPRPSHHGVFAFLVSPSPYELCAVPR

[14] = target: T2, Cytochrome P450 3A4 (Homo sapiens, UniProt P08684); experiment: Inhibition of CYP3A4T (unknown origin); format: ADME
T2 sequence (P08684 whole entry): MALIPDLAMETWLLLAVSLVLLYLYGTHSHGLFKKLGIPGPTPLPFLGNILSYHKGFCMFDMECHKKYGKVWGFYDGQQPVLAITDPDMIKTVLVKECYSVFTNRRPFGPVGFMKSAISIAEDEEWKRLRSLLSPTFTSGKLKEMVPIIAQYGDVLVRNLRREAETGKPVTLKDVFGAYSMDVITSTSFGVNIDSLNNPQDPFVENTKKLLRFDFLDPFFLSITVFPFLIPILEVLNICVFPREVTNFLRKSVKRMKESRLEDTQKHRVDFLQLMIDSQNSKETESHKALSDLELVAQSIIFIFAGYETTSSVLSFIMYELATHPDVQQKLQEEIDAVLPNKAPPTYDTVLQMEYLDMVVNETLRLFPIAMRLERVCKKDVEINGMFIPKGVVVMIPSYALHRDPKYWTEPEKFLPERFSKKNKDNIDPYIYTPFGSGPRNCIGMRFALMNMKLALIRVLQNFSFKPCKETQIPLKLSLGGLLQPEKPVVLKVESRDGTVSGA

[15] = target: T2, Cytochrome P450 3A4; experiment: Inhibition of CYP3A4M (unknown origin); format: ADME
[16] = AUC (0-infinity) in Sprague-Dawley rat at 1 mg/kg,iv; format: ADME, organism-based; set-up: dose 1 mg/kg, route iv; details: in vivo
[17] = AUC (0-infinity) in Sprague-Dawley rat at 10 mg/kg,po; format: ADME, organism-based; set-up: dose 10 mg/kg, route po; details: in vivo
[18] = AUC (0-t) in Sprague-Dawley rat at 1 mg/kg,iv; format: ADME, organism-based; set-up: dose 1 mg/kg, route iv; details: in vivo
[19] = AUC (0-t) in Sprague-Dawley rat at 10 mg/kg,po; format: ADME, organism-based; set-up: dose 10 mg/kg, route po; details: in vivo
[20] = Half life in Sprague-Dawley rat at 1 mg/kg,iv; format: ADME, organism-based; details: in vivo
[21] = Half life in Sprague-Dawley rat at 10 mg/kg,po; format: ADME, organism-based; details: in vivo
[22] = Tmax in Sprague-Dawley rat at 1 mg/kg,iv; format: ADME, organism-based; details: in vivo
[23] = Tmax in Sprague-Dawley rat at 10 mg/kg,po; format: ADME, organism-based; details: in vivo
[24] = Apparent volume of distribution in Sprague-Dawley rat at 1 mg/kg,iv; format: ADME, organism-based; details: in vivo, read-out: Vz
[25] = Clearance in Sprague-Dawley rat at 1 mg/kg,iv; format: ADME, organism-based; details: in vivo
[26] = Cmax in Sprague-Dawley rat at 1 mg/kg,iv; format: ADME, organism-based; set-up: dose 1 mg/kg, route iv; details: in vivo
[27] = Cmax in Sprague-Dawley rat at 10 mg/kg,po; format: ADME, organism-based; set-up: dose 10 mg/kg, route po; details: in vivo
[28] = Oral bioavailability in Sprague-Dawley rat at 10 mg/kg; format: ADME, organism-based; details: in vivo
[29] = target: Voltage-gated inwardly rectifying potassium channel KCNH2 (Homo sapiens, UniProt Q12809); experiment: Inhibition of human ERG potassium channel expressed in CHO cells by manual patch clamp method; format: toxicity, cell-based
Chain of Voltage-gated inwardly rectifying potassium channel KCNH2 (Q12809 whole entry): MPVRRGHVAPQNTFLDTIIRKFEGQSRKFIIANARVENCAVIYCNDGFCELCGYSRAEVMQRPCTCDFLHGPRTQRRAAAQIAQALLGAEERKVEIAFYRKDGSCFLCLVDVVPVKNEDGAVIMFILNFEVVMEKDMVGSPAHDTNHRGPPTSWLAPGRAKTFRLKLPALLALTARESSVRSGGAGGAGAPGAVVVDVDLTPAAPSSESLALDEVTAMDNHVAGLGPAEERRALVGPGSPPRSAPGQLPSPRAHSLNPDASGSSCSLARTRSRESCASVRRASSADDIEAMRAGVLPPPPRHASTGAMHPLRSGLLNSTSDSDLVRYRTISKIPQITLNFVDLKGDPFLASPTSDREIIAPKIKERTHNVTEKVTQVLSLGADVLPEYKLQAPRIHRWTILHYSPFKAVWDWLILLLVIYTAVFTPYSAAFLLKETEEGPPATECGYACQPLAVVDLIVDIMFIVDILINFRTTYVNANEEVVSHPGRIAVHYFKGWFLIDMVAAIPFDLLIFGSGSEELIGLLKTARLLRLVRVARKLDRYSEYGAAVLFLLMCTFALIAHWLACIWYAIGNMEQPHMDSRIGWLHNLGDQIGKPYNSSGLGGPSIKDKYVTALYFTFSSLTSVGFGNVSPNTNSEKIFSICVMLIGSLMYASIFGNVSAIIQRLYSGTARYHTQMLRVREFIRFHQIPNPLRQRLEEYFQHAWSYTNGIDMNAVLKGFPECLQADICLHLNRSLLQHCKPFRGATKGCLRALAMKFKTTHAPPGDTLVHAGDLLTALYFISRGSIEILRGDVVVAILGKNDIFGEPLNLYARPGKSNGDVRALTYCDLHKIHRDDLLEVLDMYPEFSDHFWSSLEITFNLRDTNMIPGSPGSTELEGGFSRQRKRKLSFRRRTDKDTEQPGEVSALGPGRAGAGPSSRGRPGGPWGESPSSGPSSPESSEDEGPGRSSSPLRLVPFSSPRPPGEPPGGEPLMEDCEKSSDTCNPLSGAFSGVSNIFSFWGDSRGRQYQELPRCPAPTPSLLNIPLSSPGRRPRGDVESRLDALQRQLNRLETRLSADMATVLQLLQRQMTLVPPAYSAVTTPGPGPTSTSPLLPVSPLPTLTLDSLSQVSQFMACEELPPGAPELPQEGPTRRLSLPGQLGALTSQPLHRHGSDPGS

[30] = Acute toxicity in mouse assessed as death at 1000 mg/kg,IG administrated for 2 weeks; format: organism-based; details: in vivo, po, 336 h
[31] = Acute toxicity in mouse assessed as increase in body weight at 1000 mg/kg,IG administrated for 2 weeks; format: organism-based; details: in vivo, po, 336 h
[32] = Acute toxicity in mouse assessed as behavioral abnormalities at 1000 mg/kg,IG administrated for 2 weeks; format: organism-based; details: in vivo, po, 336 h
[33] = Acute toxicity in mouse assessed as pathological changes in heart at 1000 mg/kg,IG administrated for 2 weeks by hematoxylin-eosin staining based analysis; format: organism-based; details: in vivo, po, 336 h
[34] = Acute toxicity in mouse assessed as pathological changes in liver at 1000 mg/kg,IG administrated for 2 weeks by hematoxylin-eosin staining based analysis; format: organism-based; details: in vivo, po, 336 h
[35] = Acute toxicity in mouse assessed as pathological changes in spleen at 1000 mg/kg,IG administrated for 2 weeks by hematoxylin-eosin staining based analysis; format: organism-based; details: in vivo, po, 336 h
[36] = Acute toxicity in mouse assessed as pathological changes in lung at 1000 mg/kg,IG administrated for 2 weeks by hematoxylin-eosin staining based analysis; format: organism-based; details: in vivo, po, 336 h
[37] = Acute toxicity in mouse assessed as pathological changes in kidney at 1000 mg/kg,IG administrated for 2 weeks by hematoxylin-eosin staining based analysis; format: organism-based; details: in vivo, po, 336 h
[38] = Acute toxicity in mouse assessed as pathological changes in brain at 1000 mg/kg,IG administrated for 2 weeks by hematoxylin-eosin staining based analysis; format: organism-based; details: in vivo, po, 336 h

## O=c1[nH]c(=O)n(COCc2ccccc2)c(Sc2cc(F)ccc2F)c1C1CC1
[1]
  EC50: 380 nM
[2]
  EC50: 17 nM
[3]
  CC50: 39.2 µM
[4]
  selectivity ratio: 2330
[5]
  EC50: 2640 nM
[6]
  EC50: 1850 nM
[7]
  EC50: > 39.2 µM
[8]
  EC50: 90 nM
[9]
  IC50: 30 nM
[10]
  IC50: > 50 µM
[11]
  IC50: 27.6 µM
[12]
  IC50: 30.3 µM
[13]
  IC50: > 50 µM
[14]
  IC50: > 50 µM
[15]
  IC50: > 50 µM
[16]
  AUC(0-inf): 1100 ng·h/mL
[17]
  AUC(0-inf): 9560 ng·h/mL
[18]
  AUC(0-t): 1100 ng·h/mL
[19]
  AUC(0-t): 8660 ng·h/mL
[20]
  half-life: 30.8 min
[21]
  half-life: 151 min
[22]
  Tmax: 4.98 min
[23]
  Tmax: 35 min
[24]
  Vd: 0.698 L/kg
[25]
  clearance: 15.6 mL/min/kg
[26]
  Cmax: 2030 ng/mL
[27]
  Cmax: 3520 ng/mL
[28]
  bioavailability: 86.7%
[29]
  IC50: > 40 µM
[30]
  Activity: Non-Toxic
[31]
  Activity: Non-Toxic
[32]
  Activity: Non-Toxic
[33]
  Activity: Non-Toxic
[34]
  Activity: Non-Toxic
[35]
  Activity: Non-Toxic
[36]
  Activity: Non-Toxic
[37]
  Activity: Non-Toxic
[38]
  Activity: Non-Toxic
